Laboratory results from patent US5464617A, “β-lactam compounds” (Hoffmann-La Roche Inc., priority 1994, dated 1995).
Structures can show the parent of a compound that is named as a salt.

What was measured:
[1] = test system: E. coli 1346; assay: Antibacterial activity of the products per se, serial dilution method in liquid medium (Test E); format: cell-based; settings: product per se; for MIC E. coli 1346 (E): test E; for MIC E. coli 1346: Table 3, liquid medium
Source text: The antibacterial activity of the products per se is illustrated on the basis of Table 3 hereinafter, the minimum inhibitory concentration […] in vitro against E. coli 1346 being determined using the serial dilution method in liquid medium: […]

[2] = test system: Citrobacter freundii 1982; assay: MIC in vitro of a 1:4 combination of ceftriaxone with a compound of formula I (Test D); format: cell-based; settings: for MIC C. freundii 1982 (D): test D; for MIC C. freundii 1982: Table 2
Description: The minimum inhibitory concentration in vitro ([…]) of a 1:4 combination of ceftriaxone with a compound of formula I against Citrobacter freundii 1982 was measured and compiled in Table 2 hereinafter.

[3] = Table 4, 1:4 combination of ceftriaxone with the compound
[4] = 1:4 combination of ceftriaxone with the compound
[5] = Table 5, particularly preferred products
[6] = Table 5, particularly preferred products, 1:4 combination with ceftriaxone

| MIC E. coli 1346 (E) ([1]; Table 4) | MIC C. freundii 1982 (D) [2, 3] | Structure (SMILES) | also measured |
| --- | --- | --- | --- |
| 2 µg/mL | 2 µg/mL | CC(=O)N1C[C@H]2CC(COC(=O)NC3CC3)=C(C(=O)O)N3C(=O)[C@@H]1[C@@H]23 [94(a), (1aS,3aR,6bR)-2-Acetyl-5-cyclopropylcarbamoyloxymethyl-1-oxo-1a,2,3,3a,4,6b-hexahydro-1H-2,6a-diazacyclobut[cd]indene-6-carboxylic acid sodium salt] | – |
| – | – | Cn1nnnc1SC1=C(C(=O)O)N2C(=O)[C@@H]3[C@H]2[C@H](C1)CN3C(=O)NCc1ccc(O)c(O)c1 [3(e), (1aS,3aR,6bR)-2-(3,4-Dihydroxy-benzylcarbamoyl)-5-(1-methyl-1H-tetrazol-5-ylsulphanyl)-1-oxo-1a,2,3,3a,4,6b-hexahydro-1H-2,6a-diazacyclobut[cd]indene-6-carboxylic acid salt] | MIC E. coli 1346 [1]: 32 µg/mL; MIC C. freundii 1982 [2, 4]: 2 µg/mL |
| 16 µg/mL | 8 µg/mL | Cc1nnc(SC2=C(C(=O)O)N3C(=O)[C@@H]4[C@H]3[C@H](C2)CN4C(=O)C(F)(F)F)s1 [Example 3(ad), (1aS,3aR,6bR)-5-(5-Methyl-1,3,4-thiadiazol-2-ylsulphanyl)-1-oxo-2-trifluoracetyl-1a,2,3,3a,4,6b-hexahydro-1H-2,6a-diazacyclobut[cd]indene-6-carboxylic acid sodium salt] | – |
| 8 µg/mL | 2 µg/mL | CC(=O)N1C[C@H]2CC(Sc3ccncc3)=C(C(=O)O)N3C(=O)[C@@H]1[C@@H]23 [Example 3(ah), (1aS,3aR,6bR)-2-Acetyl-1-oxo-5-(pyridin-4-ylsulphanyl)-1a,2,3,3a,4,6b-hexahydro-1H-2,6a-diazacyclobut[cd]indene-6-carboxylic acid sodium salt] | – |
| 0.5 µg/mL | 1 µg/mL | CC(=O)N1C[C@H]2CC(CSc3nnc(N)s3)=C(C(=O)O)N3C(=O)[C@@H]1[C@@H]23 [19(i), (1aS,3aR,6bR)-2-Acetyl-5-(5-amino-1,3,4-thiadiazol-2-ylsulphanylmethyl)-1-oxo-1a,2,3,3a,4,6b-hexahydro-1H-2,6a-diazacyclobut[cd]indene-6-carboxylic acid sodium salt] | – |
| 8 µg/mL | 2 µg/mL | CC(=O)N1C[C@H]2CC(Sc3nnnn3C)=C(C(=O)O)N3C(=O)[C@@H]1[C@@H]23 [Example 3(aa), (1aS,3aR,6bR)-2-Acetyl-5-(1-methyl-1H-tetrazol-5-ylsulphanyl)-1-oxo-1a,2,3,3a,4,6b-hexahydro-1H-2,6a-diazacyclobut[cd]indene-6-carboxylic acid sodium salt] | – |
| 32 µg/mL | 4 µg/mL | O=C(O)C1=C(CSc2ccncc2)C[C@@H]2CN(C(=O)NCc3ccc(O)cc3)[C@@H]3C(=O)N1[C@H]23 [18(i), (1aS,3aR,6bR)-2-(4-Hydroxy-benzylcarbamoyl)-1-oxo-5-(pyridin-4-ylsulphanylmethyl)-1a,2,3,3a,4,6b-hexahydro-1H-2,6a-diazacyclobut[cd]indene-6-carboxylic add sodium salt] | – |
| – | – | NC(=O)Cn1nnnc1SCC1=C(C(=O)O)N2C(=O)[C@@H]3[C@H]2[C@H](C1)CN3C=O [70(c), (1aS,3aR,6bR)-5-(1-Carbamoylmethyl-1H-tetrazol-5-ylsulphanylmethyl)-2-formyl-1-oxo-1a,2,3,3a,4,6b-hexahydro-1H-2,6a-diazacyclobut[cd]indene-6-carboxylic acid sodium salt] | MIC E. coli 1346 (E) [1, 5]: 1 µg/mL; MIC C. freundii 1982 (D) [2, 6]: 0.25 µg/mL |
| 32 µg/mL | 0.25 µg/mL | NC(=O)OCC1=C(C(=O)O)N2C(=O)[C@@H]3[C@H]2[C@H](C1)CN3C(=O)NC1CC1 [27(d), (1aS,3aR,6bR)-5-Carbamoyloxymethyl-2-cyclopropylcarbarmoyl-1-oxo-1a,2,3,3a,4,6b-hexahydro-1H-2,6a-diazacyclobut[cd]indene-6-carboxylic acid sodium salt] | – |
| – | – | Cn1nnnc1SCC1=C(C(=O)O)N2C(=O)[C@@H]3[C@H]2[C@H](C1)CN3C(=O)N[C@H]1CCNC1=O [18(c), (1aS,3aR,6bR)-2-[(S)-2-Oxo-pyrrolidin-3-ylcarbamoyl)-5-(1-methyl-1H-tetrazol-5-ylsulphanylmethyl]-1-oxo-1a,2,3,3a,4,6b-hexahydro-1H-2,6a-diazacyclobut[cd]indene-6-carboxylic acid sodium salt] | MIC E. coli 1346 [1]: 32 µg/mL; MIC C. freundii 1982 [2, 4]: 0.25 µg/mL |
| 8 µg/mL | 2 µg/mL | N#CCC(=O)N1C[C@H]2CC(Sc3nnc(N)s3)=C(C(=O)O)N3C(=O)[C@@H]1[C@@H]23 [3(ag), (1aS,3aR,6bR)-5-(5-Amino-1,3,4-thiadiazol-2-ylsulphanyl)-2-cyanoacetyl-1-oxo-1a,2,3,3a,4,6b-hexahydro-1H-2,6a-diazacyclobut[cd]indene-6-carboxylic acid sodium salt] | – |
| 8 µg/mL | 0.25 µg/mL | Cc1nnc(SCC(=O)N2C[C@H]3CC(COC(N)=O)=C(C(=O)O)N4C(=O)[C@@H]2[C@@H]34)s1 [Example 58(e), (1aS,3aR,6bR)-5-Carbamoyloxymethyl-2-(5-methyl-1,3,4-thiadiazol-2-ylsulphanylacetyl)-1-oxo-1a,2,3,3a,4,6b-hexahydro-1H-2,6a-diazacyclobut[cd]indene-6-carboxylic acid sodium salt] | – |
| 2 µg/mL | 0.5 µg/mL | CC(=O)N1C[C@H]2CC(CN=[N+]=[N-])=C(C(=O)O)N3C(=O)[C@@H]1[C@@H]23 [83(a), (1aS,3aR,6bR)-2-Acetyl-5-azidomethyl-1-oxo-1a,2,3,3a,4,6b-hexahydro-1H-2,6a-diazacyclobut[cd]indene-6-carboxylic acid sodium salt] | – |
| 16 µg/mL | 2 µg/mL | Cc1nnc(SCC2=C(C(=O)[O-])N3C(=O)[C@@H]4[C@H]3[C@H](C2)CN4C(=O)C[n+]2cccc(C(N)=O)c2)s1 [65(d), (1aS,3aR,6bR)-2-(3-Carbamoyl-pyridin-1-ylioacetyl)-5-(5-methyl-1,3,4-thiadiazol-2-ylsulphanylmethyl)-1-oxo-1a,2,3,3a,4,6b-hexahydro-1H-2,6a-diazacyclobut[cd]indene-6-carboxylic acid sodium salt] | – |
| > 32 µg/mL | 1 µg/mL | NC(=O)c1ccc(NC(=O)N2C[C@H]3CC(Sc4ccncc4)=C(C(=O)O)N4C(=O)[C@@H]2[C@@H]34)cc1 [3(n), (1aS,3aR,6bR)-2-(4-Carbamoyl-phenylcarbamoyl)-1-oxo-5-(pyridin-4-ylsulphanyl)-1a,2,3,3a,4,6b-hexahydro-1H-2,6a-diazacyclobut[cd]indene-6-carboxylic acid sodium salt] | – |
| 2 µg/mL | 0.5 µg/mL | Cc1nnc(SCC2=C(C(=O)O)N3C(=O)[C@@H]4[C@H]3[C@H](C2)CN4C(=O)CSc2nnc(N)s2)s1 [65(f), (1aS,3aR,6bR)-2-(2-Amino-1,3,4-thiadiazol-5-ylsulphanylacetyl)-5-(5-methyl-1,3,4-thiadiazol-2-ylsulphanylmethyl)-1-oxo-1a,2,3,3a,4,6b-hexahydro-1H-2,6a-diazacyclobut[cd]indene-6-carboxylic acid sodium salt] | – |
| 2 µg/mL | 1 µg/mL | O=C(NCc1ccncc1)OCC1=C(C(=O)O)N2C(=O)[C@@H]3[C@H]2[C@H](C1)CN3C(=O)C(F)(F)F [100(b), (1aS,3aR,6bR)-1-Oxo-5-(pyridin-4-ylmethylcarbamoyloxymethyl)-2-trifluoroacetyl-1a,2,3,3a,4,6b-hexahydro-1H-2,6a-diazacyclobut[cd]indene-6-carboxylic acid sodium salt] | – |
| 16 µg/mL | 0.25 µg/mL | [N-]=[N+]=NCC1=C(C(=O)O)N2C(=O)[C@@H]3[C@H]2[C@H](C1)CN3C(=O)Nc1ccc(O)cc1 [Example 82, (1aS,3aR,6bR)-5-Azidomethyl-2-(4-hydroxy-phenylcarbamoyl)-1-oxo-1a,2,3,3a,4,6b-hexahydro-1H-2,6a-diazacyclobut[cd]indene-6-carboxylic acid sodium salt] | – |
| > 32 µg/mL | 8 µg/mL | CC(=O)N1C[C@H]2CC(SCc3n(C)nc[n+]3C)=C(C(=O)[O-])N3C(=O)[C@@H]1[C@@H]23 [3(ao), (1aS,3aR,6bR)-2-Acetyl-5-[(1,4-dimethyl-1H-1,2,4-triazol-5-ylio)-methylsulphanyl]-1-oxo-1a,2,3,3a,4,6b-hexahydro-1H-2,6a-diazacyclobut[cd]indene-6-carboxylate] | – |
| – | – | Cn1nnnc1SCC1=C(C(=O)O)N2C(=O)[C@@H]3[C@H]2[C@H](C1)CN3S(C)(=O)=O [Example 19(e), (1aS,3aR,6bR)-2-Methylsulphonyl-5-(1-methyl-1H-tetrazol-5-ylsulphanylmethyl)-1-oxo-1a,2,3,3a,4,6b-hexahydro-1H-2,6a-diazacyclobut[cd]indene-6-carboxylic acid sodium salt] | MIC E. coli 1346 (E) [1, 5]: 1 µg/mL; MIC C. freundii 1982 (D) [2, 6]: 0.25 µg/mL |

| Structure (SMILES) | MIC E. coli 1346 (E) ([1]; Table 4) | MIC C. freundii 1982 (D) [2, 3] | also measured |
| --- | --- | --- | --- |
| O=C(O)C1=C(CSc2ccncc2)O[C@@H]2CN[C@@H]3C(=O)N1[C@@H]32 [Example 29(b), (1aS,3aR,6bS)-1-Oxo-5-(pyridin-4-ylsulphanylmethyl)-1,1a,2,3,3a,6b-hexahydro-4-oxa-2,6a-diazacyclobut[cd]indene-6-carboxylic acid] | > 16 µg/mL | 2 µg/mL | – |
| CC(=O)OCC1=C(C(=O)O)N2C(=O)[C@@H]3[C@H]2[C@H](C1)CN3C(C)=O [25(c), (1aS,3aR,6bR)-5-Acetoxymethyl-2-acetyl-1-oxo-1a,2,3,3a,4,6b-hexahydro-1H-2,6a-diazacyclobut[cd]indene-6-carboxylic acid sodium salt] | 4 µg/mL | 1 µg/mL | – |
